This note sets out measurements from patent US8309685B2 (Celgene Avilomics Research, Inc., priority 2007, dated 2012).

Data set [1] deals with T1, D168A mutant of the HCV NS3/4A 1b protease enzyme (Hepatitis C virus genotype 1b, UniProt P26663, D1194A).
T1 construct: 10× stocks of NS3/4A protease enzyme from Bioenza (Mountain View, Calif.); purchased Bioenza (Mountain View, Calif.)
In words: HCV Protease FRET Assay (IC50_APP), D168A mutant. The conditions noted are these: apparent IC50, D168A mutant; read-out: IC50_APP, HCV D168A. It is filed as biochemical.

Data set [2] deals with cell line ET (luc-ubi-neo/ET), human Huh7 hepatoma cell line. In words: Method A: cytotoxicity in ET replicon cells (CytoTox-1). It counts as cell-based. The settings on record: concentration decreasing cell viability by 50%, 72 hr. In a few lines: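 ET cells (Huh7 carrying luciferase HCV replicon), 5×10^3 cells/well, given six 3-fold compound concentrations in DMEM with 5% FBS. After 72 hr, while subconfluent, cell number was measured with CytoTox-1 reagent. Interferon alpha-2b served as positive control.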
In general terms: Replicon systems follow genome replication, usually without infectious particles.

Data set [3] concerns the target T2, A156T mutant of the HCV NS3/4A 1b protease enzyme (Hepatitis C virus genotype 1b, UniProt P26663, A1182T).
T2 construct: 10× stocks of NS3/4A protease enzyme from Bioenza (Mountain View, Calif.); purchased Bioenza (Mountain View, Calif.)
In words: HCV Protease FRET Assay (IC50), A156T mutant. The conditions noted are these: read-out: Inhibition, HCV A156T; A156T enzyme, FRET assay. It is filed as biochemical. How it is done:
HCV Protease FRET Assay for Wild Type and Mutated NS3/4A 1b Enzymes (IC50)
The protocol is a modified FRET-based assay (v—02) from In Vitro Resistance Studies of HCV Serine Protease Inhibitors, 2004, JBC, vol. 279, No. 17, pp 17508-17514.
10× stocks of NS3/4A protease enzyme from Bioenza (Mountain View, Calif.) and 1.13× 5-FAM/QXL™ 520 FRET peptide substrate from Anaspec (San Jose, Calif.) were prepared in 50 mM HEPES, pH 7.8, 100 mM NaCl, 5 mM DTT and 20% glycerol. 5 μL of each enzyme were pre-incubated in a Corning (#3573) 384-well, black, non-treated microtiter plate (Corning, N.Y.) for 30 min at 25° C. with a 0.5 μL volume of 50% DMSO and serially diluted compounds prepared in 50% DMSO. Protease reactions were started with the addition of 45 μL of the FRET substrate and monitored for 120 minutes at λex487/λem514 through Quad^4 monochromoters in a Synergy^4 plate reader from BioTek (Winooski, Vt.). At the conclusion of each assay, progress curves from each well were examined for linear reaction kinetics and fit statistics (R^2, absolute sum of squares). Initial velocity (0 minutes to 30+ minutes) from each reaction was determined from the slope of a plot of relative fluorescence units vs time (minutes) and then plotted against inhibitor concentration to estimate IC50 from log[Inhibitor] vs Response, Variable Slope model in GraphPad Prism from GraphPad Software (San Diego, Calif.).
The compound numbers correspond to the compound numbers in Table 3. […] ;

Data set [4] relates to HCV RNA replicon in cell line ET (luc-ubi-neo/ET), human Huh7 hepatoma. Nature of the data set: Method A: HCV RNA replicon antiviral assay (luciferase, ET cell line). It is filed as cell-based, Hepatitis C virus. The conditions noted are these: Hepatitis C virus, Huh-7. In a few lines:
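ET replicon cells (Huh7 carrying luciferase-reporter HCV replicon) plated at 5×10^3 cells/well and exposed 72 hr to six 3-fold drug concentrations in DMEM/5% FBS. Replicon luciferase gave EC50/EC90; CytoTox-1 cell counts gave IC50 (viability); […]. Interferon alpha-2b served as positive control.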

For data set [5], the target named is T3, wild type HCV NS3/4A 1b protease enzyme (Hepatitis C virus genotype 1b, UniProt P26663).
T3 construct: 10× stocks of NS3/4A protease enzyme from Bioenza (Mountain View, Calif.); purchased Bioenza (Mountain View, Calif.)
Nature of the data set: biochemical. It counts as biochemical. The settings on record: read-out: Inhibition, WT; WT enzyme, FRET assay.

For data set [6], the target named is T3, wild type HCV NS3/4A 1b protease enzyme. Nature of the data set: HCV Protease FRET Assay (IC50_APP), wild type. It is filed as biochemical. The settings on record: read-out: IC50_APP, WT; apparent IC50, wild type NS3/4A 1b.
Data set [7] concerns the target T1, D168A mutant of the HCV NS3/4A 1b protease enzyme. Nature of the data set: HCV Protease FRET Assay (IC50), D168A mutant. It counts as biochemical. The settings on record: read-out: Inhibition, HCV D168A; D168A enzyme, FRET assay.
The target in data set [8] is T2, A156T mutant of the HCV NS3/4A 1b protease enzyme. In words: HCV Protease FRET Assay (IC50_APP), A156T mutant. It is filed as biochemical. The conditions noted are these: apparent IC50, A156T mutant; read-out: IC50_APP, HCV A156T.
Where [9] appears, read: Replicon, assay of Example 22, 72 hr, read-out: Inhibition, Replicon.
[10] abbreviates: assay described in Example 22, read-out: Replicon (IC50).

Where two headings read alike, the source gives them in different places.

Regarding `C=CC(=O)N(C)CC[C@H](NC(=O)OC(C)(C)C)C(=O)N1C[C@H](Oc2cc(-c3ccccc3)nc3cc(OC)ccc23)C[C@H]1C(=O)N[C@]1(C(=O)NS(=O)(=O)c2ccccc2)C[C@H]1C=C` [Compound I-12, (2S)-2-[[(1,1-dimethylethoxy)carbonyl]amino]-4-(2-propenoyl)methylamino-butanoyl-(4R)-4-[(7-methoxy-2-phenyl-4-quinolinyl)oxy]-L-prolyl-1-amino-2-ethenyl-N-(phenylsulfonyl)-(1R,2S)-cyclopropanecarboxamide], the IC50 in data set [1] is 1000 to 10000 nM; in data set [3] it was 10 to 100 nM; in data set [4] (setting [9]), 10 to 100 nM; in data set [4] (setting [10]), 10 to 100 nM; in data set [5], under 10 nM; in data set [6], under 10 nM. Further, the IC50 in data set [7] lay in the range of 10 to 100 nM; in data set [8] it was 1000 to 10000 nM. Besides, the “Inhibition, Cytotoxicity” value in data set [2] was “D (IC50>1000 nM and <10,000 nM)”. Moreover, the IC90 in data set [4] (assay described in Example 22) lay in the range of 100 to 1000 nM.
Take `C=C[C@@H]1C[C@]1(NC(=O)[C@@H]1C[C@@H](Oc2cc(-c3ccccc3)nc3cc(OC)ccc23)CN1C(=O)[C@H](CNC(=O)C(C)Br)NC(=O)OC(C)(C)C)C(=O)NS(=O)(=O)c1ccccc1` (stereo partly drawn) [Compound I-22, tert-butyl(S)-3-(2-bromopropanamido)-1-((2S,4R)-4-(7-methoxy-2-phenylquinolin-4-yloxy)-2-((1R,2S)-1-(phenylsulfonylcarbamoyl)-2-vinylcyclopropylcarbamoyl)pyrrolidin-1-yl)-1-oxopropan-2-ylcarbamate]: the IC50 is 1000 to 10000 nM in data set [1]; 10 to 100 nM in data set [3]; 100 to 1000 nM in data set [4] (setting [9]); 100 to 1000 nM in data set [4] (setting [10]); under 10 nM in data set [5]; under 10 nM in data set [6]. Besides, the IC50 fell in the range of 10 to 100 nM in data set [7] and 1000 to 10000 nM in data set [8]. Besides, the “Inhibition, Cytotoxicity” value in data set [2] is “D (IC50>1000 nM and <10,000 nM)”. Besides, the IC90 in data set [4] (assay described in Example 22) was over 10000 nM.
Regarding `C=CC(=O)N(C)C[C@H](NC(=O)OC(C)(C)C)C(=O)N1C[C@H](Oc2cc(-c3ccccc3)nc3cc(OC)ccc23)C[C@H]1C(=O)N[C@]1(C(=O)NS(=O)(=O)c2ccccc2)C[C@H]1C=C` [Compound I-28, tert-butyl-(S)-1-((2S,4R)-4-(7-methoxy-2-phenylquinolin-4-yloxy)-2-((1R,2S)-1-(phenylsulfonylcarbamoyl)-2-vinylcyclopropylcarbamoyl)pyrrolidin-1-yl)-3-(N-methylacrylamido)-1-oxopropan-2-ylcarbamate], the IC50 is 1000 to 10000 nM in data set [1]; 10 to 100 nM in data set [3]; under 10 nM in data set [4] (setting [9]); 10 to 100 nM in data set [4] (setting [10]); under 10 nM in data set [5]; under 10 nM in data set [6]. Also, the figures for the IC50 in data set [7] and in data set [8] were 100 to 1000 nM and 1000 to 10000 nM, respectively. For the same compound, in data set [2], the “Inhibition, Cytotoxicity” value is “D (IC50>1000 nM and <10,000 nM)”. The same compound returned an IC90 in data set [4] (assay described in Example 22) of 100 to 1000 nM.
Turning to `C=C[C@@H]1C[C@]1(NC(=O)[C@@H]1C[C@@H](Oc2cc(-c3ccccc3)nc3cc(OC)ccc23)CN1C(=O)[C@H](CN(C)C(=O)[C@H](Cl)c1ccccc1)NC(=O)OC(C)(C)C)C(=O)NS(=O)(=O)c1ccccc1` [Compound I-33, tert-butyl-(2S)-3-(2-chloro-N-methyl-2-phenylacetamido)-1-((2S,4R)-4-(7-methoxy-2-phenylquinolin-4-yloxy)-2-((1R,2S)-1-(phenylsulfonylcarbamoyl)-2-vinylcyclopropylcarbamoyl)pyrrolidin-1-yl)-1-oxopropan-2-ylcarbamate], the IC50 in data set [1] is 1000 to 10000 nM; in data set [3] it was 100 to 1000 nM; in data set [4] (setting [9]), under 10 nM; in data set [4] (setting [10]) it was under 10 nM; in data set [5] it was under 10 nM; in data set [6], under 10 nM. Moreover, the IC50 in data set [7] is 100 to 1000 nM; in data set [8] it was 1000 to 10000 nM. In addition, in data set [2], the “Inhibition, Cytotoxicity” value is on record as “E (IC50≧10,000 nM)”. Moreover, the concentration for an effect of 90% (IC90) in data set [4] (assay described in Example 22) fell in the range of 10 to 100 nM.
Take `C=CC(=O)NC[C@H](NC(=O)OC(C)(C)C)C(=O)N1C[C@H](Oc2cc(-c3ccccc3)nc3cc(OC)ccc23)C[C@H]1C(=O)N[C@]1(C(=O)NS(=O)(=O)C2CC2)C[C@H]1C=C` [Compound I-35, tert-butyl-(S)-3-acrylamido-1-((2S,4R)-2-((1R,2S)-1-(cyclopropylsulfonylcarbamoyl)-2-vinylcyclopropylcarbamoyl)-4-(7-methoxy-2-phenylquinolin-4-yloxy)pyrrolidin-1-yl)-1-oxopropan-2-ylcarbamate]: the IC50 in data set [1] is 100 to 1000 nM; in data set [3], under 10 nM; in data set [4] (setting [9]), under 10 nM; in data set [4] (setting [10]), 10 to 100 nM; in data set [5], under 10 nM; in data set [6], under 10 nM. For the same compound, the IC50 is under 10 nM in data set [7] and 100 to 1000 nM in data set [8]. For the same compound, in data set [2], the “Inhibition, Cytotoxicity” value was “C (IC50>100 nM and ≦1000 nM)”. The compound also registered an IC90 in data set [4] (assay described in Example 22) of 100 to 1000 nM.
`C=CC(=O)NCC(=O)N1C[C@H](Oc2cc(-c3ccccc3)nc3cc(OC)ccc23)C[C@H]1C(=O)N[C@]1(C(=O)NS(=O)(=O)C2CC2)C[C@H]1C=C` [Compound I-39, (2S,4R)-1-(2-acrylamidoacetyl)-N-((1R,2S)-1-(cyclopropylsulfonylcarbamoyl)-2-vinylcyclopropyl)-4-(7-methoxy-2-phenylquinolin-4-yloxy)pyrrolidine-2-carboxamide]: the IC50 in data set [1] was 100 to 1000 nM; in data set [3] it was under 10 nM; in data set [4] (setting [9]) it was 10 to 100 nM; in data set [4] (setting [10]), 10 to 100 nM; in data set [5], under 10 nM; in data set [6], under 10 nM. Also, the values for the IC50 in data set [7] and in data set [8] were under 10 nM and 10 to 100 nM, respectively. In data set [2], the “Inhibition, Cytotoxicity” value was “C (IC50>100 nM and ≦1000 nM)”. For the same compound, in data set [4] (assay described in Example 22), the IC90 was 100 to 1000 nM.
With `C=CC(=O)N[C@H](C)C(=O)N1C[C@H](Oc2cc(-c3ccccc3)nc3cc(OC)ccc23)C[C@H]1C(=O)N[C@]1(C(=O)NS(=O)(=O)c2ccccc2)C[C@H]1C=C` [Compound I-46, (2S,4R)-1-((R)-2-acrylamidopropanoyl)-4-(7-methoxy-2-phenylquinolin-4-yloxy)-N-((1R,2S)-1-(phenylsulfonylcarbamoyl)-2-vinylcyclopropyl)pyrrolidine-2-carboxamide], the IC50 in data set [1] was 100 to 1000 nM; in data set [3] it was under 10 nM; in data set [4] (setting [9]), under 10 nM; in data set [4] (setting [10]), under 10 nM; in data set [5], under 10 nM; in data set [6], under 10 nM. The IC50 was under 10 nM in data set [7] and 10 to 100 nM in data set [8]. Further, the “Inhibition, Cytotoxicity” value in data set [2] was “C (IC50>100 nM and ≦1000 nM)”. For the same compound, in data set [4] (assay described in Example 22), the IC90 was under 10 nM.

A word on the IC90: it is the concentration at which the effect reaches the 90% level. Read a high IC90 as a need for much substance.
